Laboratory results taken from patent publication US20250243488A1, “METHODS OF MODULATING PROGRANULIN EXPRESSION USING ANTISENSE OLIGONUCLEOTIDES TARGETING REGULATORY RNAS” (Camp4 Therapeutics Corporation, priority 2022, published 2025).
Oligonucleotides are written 5' to 3', each unit as a sugar letter and its base; * is a phosphorothioate linkage, no mark a phosphodiester; rarer units and linkages stand in square brackets, end groups in braces. Plain capitals give the bases only. e = 2'-O-(2-methoxyethyl) (MOE); l = locked nucleic acid (LNA); [5mC] = 5-methylcytosine

Tested on: GRN mRNA
Assay: GRN mRNA qPCR in SK-N-AS cells transfected with ASOs
Assay type: cell-based, human
Conditions: SK-N-AS; for hGRN mRNA FC / 120 nM FC (GRN mRNA): 120 nM
Protocol: The best ASOs based on increased GRN mRNA fold-change were selected for further characterization in dose titration studies. Briefly, human neuroblastoma SK-N-AS cells were transfected with 20 to 160 nM of ASOs CO-3423, CO-3431, CO-3463, and CO-3503. A steric non-targeting control ASO (sNTC) was used as a control. Cells were collected for mRNA analysis after 48 hours and GRN mRNA quantified by qPCR. Housekeeping genes for normalization were GAPDH and PPIA, and mRNA fold change (FC) was normalized to sNTC.
36 additional ASOs were designed with different modifications and base walking around selected ASOs. The effect of increasing doses of these ASOs was assessed in the human neuroblastoma cell line SK-N-AS following transfection. Relative GRN mRNA levels in SK-N-AS cells after treatment was assessed 48-hours post-transfection, and data from exemplary ASOs is shown in FIGS. 5A and 5B.
Additional chemical modifications, including LNA, modifications were made to CO-3423. SK-N-AS cells were transfected with increasing concentrations of the LNA/PS modified ASOs and GRN mRNA quantified by qPCR. ASOs including different LNA modifications of CO-3423 had similar efficacy (i.e, similar increased GRN mRNA expression). GRN mRNA was normalized to the average fold-change of cells treated with two steric non-targeting control ASOs (CO-3772 and CO-1589 (sNTC1)).
The effect of ASO length on GRN gene expression modulation was also investigated. SK-N-AS cells were transfected with increasing concentrations of the longer ASOs and GRN mRNA quantified by qPCR. Increasing the length of CO-3423 increased the potency of the ASO, as shown in Table 4. mRNA was normalized to the average fold change of cells treated with two steric non-targeting control ASOs (CO-3772 and CO-1589 (sNTC1)).
To determine whether variations in the PO/PS internucleotide bond linkages impacted the ability of CO-3423 and CO-3431 to modulate gene expression, several modified ASOs based on these parent ASOs were prepared. SK-N-AS cells were transfected with increasing concentrations of the mixed PO/PS bond ASOs described in Tables 5 and 6, and GRN mRNA quantified by qPCR.
GRN mRNA fold-change after treatment with mixed PO/PS bond versions of CO-3423 is shown in Table 5. mRNA was normalized to the average fold change of cells treated with steric nontargeting controls (CO-3772, CO-1589 (sNTC1), and CO-1929 (sNTC3)).
GRN mRNA fold-change after treatment with mixed PO/PS bond versions of CO-3431 is shown in Table 6. mRNA was normalized as described above.
To further assess the effect of additional modifications on the ability of CO-3423 parent ASO to modulate GRN gene expression, additional LNA tiling and PO bond modifications were incorporated to CO-3423. SK-N-AS cells were transfected with increasing concentrations of the modified ASOs and GRN mRNA quantified by qPCR. CO-3423 was used for comparison. GRN mRNA was normalized to the average fold-change of cells treated with a steric non-targeting control ASO, CO-1589 (sNTC1).
To further assess the effect of modifications on the ability of CO-3463 parent ASO to modulate GRN gene expression, ASOs based on this ASOS incorporating additional LNA modifications were prepared and compared to […]. SK-N-AS cells were transfected with increasing concentrations of the ASOs and GRN mRNA quantified by qPCR. GRN mRNA was normalized to the average fold-change of cells treated with a steric non-targeting control ASO, CO-1589 (sNTC1).
68 additional ASOs were designed to target intergenic enhancers (eRNA). 48 hours post-transfection, the cells were collected for GRN mRNA analysis using qPCR. CO-1589, a steric nontargeting control ASO, was used as a control. GRN mRNA was normalized to cells treated with CO-1589.
The best hits from these ASOs were tested in a dose escalation study. Cells were incubated for 48 hours. Subsequently, the cells were collected for mRNA quantification via RT-qPCR. […]

[1] = Table 9, 48 hours post-transfection, normalized to CO-1589
[2] = Table 4, normalized to CO-3772 and CO-1589 (sNTC1)
[3] = Table 7, normalized to CO-1589 (sNTC1)
[4] = Table 13, normalized to CO-1589
[5] = Table 11, 48 hours, normalized to CO-1589
[6] = Table 12, normalized to CO-1589
[7] = Table 3, normalized to CO-3772 and CO-1589 (sNTC1)

## CO-4612: ASO designed to target intergenic enhancers (eRNA) (antisense eA*eT*eG*eG*e[5mC]*eT*eA*eA*eA*eA*e[5mC]*eT*eA*e[5mC]*e[5mC]*eT*eT*e[5mC]*e[5mC]*eA)
[1]
  hGRN mRNA FC: 1.0 FC

## CO-4364: longer ASO based on CO-3423 (antisense eG*eG*eA*e[5mC]*eT*eT*eG*eG*eG*eA*eG*eT*eG*eG*eT*eG*eA*e[5mC]*eT*eG*eA*eA*e[5mC])
[2]
  30 nM FC (GRN mRNA): 1.1 FC
  60 nM FC (GRN mRNA): 1.3 FC
  120 nM FC (GRN mRNA): 1.6 FC
Table 7, 7.5 nM, normalized to CO-1589 (sNTC1)
  7.5 nM FC (GRN mRNA): 1.1 FC
Table 7, 13 nM, normalized to CO-1589 (sNTC1)
  13 nM FC (GRN mRNA): 1.2 FC
[3]
  30 nM FC (GRN mRNA): 1.7 FC
  60 nM FC (GRN mRNA): 2.1 FC
  120 nM FC (GRN mRNA): 1.9 FC
Table 7, 150 nM, normalized to CO-1589 (sNTC1)
  150 nM FC (GRN mRNA): 2.3 FC
[4]
  30 nM FC (GRN mRNA): 1.1 FC
  60 nM FC (GRN mRNA): 1.5 FC
  120 nM FC (GRN mRNA): 1.6 FC

## CO-6439: ASO designed to target an intragenic enhancer RNA (eRNA) (eG*e[5mC]*eT*e[5mC]*e[5mC]*e[5mC]*eT*eG*eT*eG*eT*eG*e[5mC]*eT*eA*e[5mC]*eT*eG*eA*eG)
[5]
  hGRN mRNA FC: 1.1 FC

## CO-6444: ASO designed to target an intragenic enhancer RNA (eRNA) (eT*eG*e[5mC]*e[5mC]*e[5mC]*eA*eA*eT*eG*e[5mC]*e[5mC]*e[5mC]*eA*eA*e[5mC]*eG*eT*eG*eA*eG)
[5]
  hGRN mRNA FC: 1.0 FC

## CO-4633: ASO designed to target intergenic enhancers (eRNA) (antisense eT*e[5mC]*e[5mC]*eT*e[5mC]*eT*eG*e[5mC]*e[5mC]*eT*eG*eA*e[5mC]*eT*eA*eA*eT*eT*e[5mC]*eG)
[1]
  hGRN mRNA FC: 1.3 FC

## CO-6433: ASO designed to target an intragenic enhancer RNA (eRNA) (eG*e[5mC]*eA*e[5mC]*eT*eG*e[5mC]*eT*eG*e[5mC]*e[5mC]*e[5mC]*e[5mC]*e[5mC]*eA*eA*eG*eA*e[5mC]*eA)
[5]
  hGRN mRNA FC: 0.9 FC

## CO-4647: ASO designed to target intergenic enhancers (eRNA) (antisense e[5mC]*eT*eA*eA*eG*e[5mC]*eG*eT*eT*eT*e[5mC]*eT*e[5mC]*eT*eA*eG*eT*e[5mC]*eA*eT)
[1]
  hGRN mRNA FC: 0.8 FC

## CO-4600: ASO designed to target intergenic enhancers (eRNA) (antisense eT*eT*eA*eG*e[5mC]*eA*e[5mC]*eG*eT*eG*eG*eA*e[5mC]*eT*e[5mC]*e[5mC]*eG*eA*eG*eG)
[1]
  hGRN mRNA FC: 1.0 FC

## CO-4604: ASO designed to target intergenic enhancers (eRNA) (antisense eT*e[5mC]*eT*e[5mC]*e[5mC]*eG*eA*eT*e[5mC]*e[5mC]*e[5mC]*eG*e[5mC]*eT*eT*eG*eT*e[5mC]*eA*eG)
[1]
  hGRN mRNA FC: 1.2 FC

## CO-6400: ASO based on parent ASO CO-3462 (antisense eG*eT*eA*eG*eG*eA*eG*eA*eA*eT*e[5mC]*eG*e[5mC]*eT*eT*eT*eG*eG*eG*eA*eG*e[5mC])
[6]
  30 nM FC (GRN mRNA): 1.1 FC
  60 nM FC (GRN mRNA): 1.3 FC
  120 nM FC (GRN mRNA): 1.3 FC

## CO-4358: LNA/PS modified ASO based on CO-3423 (antisense eG*eG*eA*l[5mC]*eT*eT*eG*lG*eG*eA*eG*lT*eG*eG*eT*lG*eA*e[5mC]*eT*eG)
[7]
  30 nM FC (GRN mRNA): 1.5 FC
  60 nM FC (GRN mRNA): 1.9 FC
  120 nM FC (GRN mRNA): 2.0 FC

## CO-6421: ASO based on parent ASOs CO-4363 and CO-4364 (eG*eG*eA*e[5mC]*eT*lT*eG*eG*eG*eA*eG*lT*eG*eG*eT*eG*eA*l[5mC]*eT*eG*eA*eA*e[5mC])
[4]
  30 nM FC (GRN mRNA): 1.3 FC
  60 nM FC (GRN mRNA): 2.1 FC
  120 nM FC (GRN mRNA): 1.7 FC

## CO-4625: ASO designed to target intergenic enhancers (eRNA) (antisense eT*e[5mC]*eT*eT*eG*eT*eT*eG*eT*eT*eG*eG*eA*eA*eA*eT*eT*e[5mC]*e[5mC]*e[5mC])
[1]
  hGRN mRNA FC: 1.1 FC

## CO-4650: ASO designed to target intergenic enhancers (eRNA) (antisense eT*eA*eA*eG*eA*e[5mC]*eT*eT*eT*e[5mC]*e[5mC]*eA*eG*e[5mC]*eA*eT*eG*eT*e[5mC]*e[5mC])
[1]
  hGRN mRNA FC: 1.1 FC

## CO-4601: ASO designed to target intergenic enhancers (eRNA) (antisense eG*eT*eA*eG*eG*e[5mC]*e[5mC]*eT*e[5mC]*eG*eA*e[5mC]*eT*eT*eT*eG*eA*e[5mC]*eG*eT)
[1]
  hGRN mRNA FC: 1.0 FC

## CO-6416: ASO based on parent ASOs CO-4363 and CO-4364 (eG*eG*lA*e[5mC]*eT*lT*eG*eG*lG*eA*eG*lT*eG*eG*lT*eG*eA*l[5mC]*eT*eG*eA)
[4]
  30 nM FC (GRN mRNA): 1.4 FC
  60 nM FC (GRN mRNA): 1.6 FC
  120 nM FC (GRN mRNA): 2.2 FC

## CO-4607: ASO designed to target intergenic enhancers (eRNA) (antisense eA*eA*eG*eA*eA*eA*eT*eA*eG*eA*eT*eT*eA*e[5mC]*e[5mC]*e[5mC]*e[5mC]*eG*eT*eT)
[1]
  hGRN mRNA FC: 1.1 FC

## CO-6446: ASO designed to target an intragenic enhancer RNA (eRNA) (eT*eG*e[5mC]*eT*eG*eT*eG*eA*eG*e[5mC]*eT*eG*e[5mC]*e[5mC]*e[5mC]*eA*eG*eT*eG*eG)
[5]
  hGRN mRNA FC: 1.1 FC

## CO-4617: ASO designed to target intergenic enhancers (eRNA) (antisense eG*eG*eA*eG*eA*eT*eA*eG*eG*eG*eT*e[5mC]*eA*e[5mC]*eG*eT*eA*e[5mC]*eT*eT)
[1]
  hGRN mRNA FC: 1.2 FC

## CO-6445: ASO designed to target an intragenic enhancer RNA (eRNA) (eG*eT*eG*eG*eG*eA*eA*eG*eT*eA*eT*eG*eG*e[5mC]*eT*eG*e[5mC]*eT*eG*e[5mC])
[5]
  hGRN mRNA FC: 1.3 FC

## CO-6437: ASO designed to target an intragenic enhancer RNA (eRNA) (eG*eA*e[5mC]*eA*eA*eA*eG*eA*e[5mC]*e[5mC]*e[5mC]*eA*e[5mC]*e[5mC]*e[5mC]*e[5mC]*eT*eG*eT*e[5mC])
[5]
  hGRN mRNA FC: 1.1 FC
